In the supplement of paper PMC10307832:

Tests used:
Experiment in all cases: relative viability (nuclei count vs DMSO), 5 days (fraction); higher = more cells survive
Wnt-C59 + Palbociclib = compound: CC1=NC=CC(=C1)C2=CC=C(C=C2)CC(=O)NC3=CC=C(C=C3)C4=CN=CC=C4 [Wnt-C59] + CC(=O)c1c(C)c2cnc(Nc3ccc(N4CCNCC4)cn3)nc2n(C2CCCC2)c1=O [Palbociclib] (partner 0.5 µM)
Summary of the method: (§1)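 One day after seeding in 1536-well plates, lung cancer cell lines were dosed by pin tool. Dosing was either single-drug or a fixed anchor-drug dose plus five library-drug doses (not always all listed) in √10 steps. After 5 days, nuclei were stained in one fix-and-stain step and counted on 4× images, and relative viability is the nuclei count of treated wells over that of vehicle wells, given as the median of duplicate plates.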

Wnt-C59 + Tozasertib = compound: CC1=NC=CC(=C1)C2=CC=C(C=C2)CC(=O)NC3=CC=C(C=C3)C4=CN=CC=C4 [Wnt-C59] + Cc1cc(Nc2cc(N3CCN(C)CC3)nc(Sc3ccc(NC(=O)C4CC4)cc3)n2)n[nH]1 [Tozasertib] (partner 0.1 µM)
Summary of the method: as §1

Lapatinib + Vorinostat = compound: CS(=O)(=O)CCNCc1ccc(-c2ccc3ncnc(Nc4ccc(OCc5cccc(F)c5)c(Cl)c4)c3c2)o1 [Lapatinib] + O=C(CCCCCCC(=O)Nc1ccccc1)NO [Vorinostat] (partner 1 µM)
Summary of the method: as §1

Lapatinib + Pemetrexed = compound: CS(=O)(=O)CCNCc1ccc(-c2ccc3ncnc(Nc4ccc(OCc5cccc(F)c5)c(Cl)c4)c3c2)o1 [Lapatinib] + Nc1nc2[nH]cc(CCc3ccc(C(=O)N[C@@H](CCC(=O)O)C(=O)O)cc3)c2c(=O)[nH]1 [Pemetrexed] (partner 0.2 µM)
Summary of the method: as §1

| Cell Line | relative viability (Wnt-C59 + Palbociclib; first compound 0.001 µM) | relative viability (Wnt-C59 + Palbociclib; first compound 0.01 µM) | relative viability (Wnt-C59 + Palbociclib; first compound 0.03162 µM) | relative viability (Wnt-C59 + Palbociclib; first compound 0.1 µM) | relative viability (Wnt-C59 + Tozasertib; first compound 0.001 µM) | relative viability (Wnt-C59 + Tozasertib; first compound 0.01 µM) | relative viability (Wnt-C59 + Tozasertib; first compound 0.03162 µM) | relative viability (Wnt-C59 + Tozasertib; first compound 0.1 µM) | relative viability (Lapatinib + Vorinostat; first compound 0.02 µM) | relative viability (Lapatinib + Vorinostat; first compound 0.2 µM) | relative viability (Lapatinib + Vorinostat; first compound 0.6325 µM) | relative viability (Lapatinib + Vorinostat; first compound 2 µM) | relative viability (Lapatinib + Vorinostat; first compound 0.06325 µM) | relative viability (Lapatinib + Pemetrexed; first compound 0.02 µM) | relative viability (Lapatinib + Pemetrexed; first compound 0.06325 µM) | relative viability (Lapatinib + Pemetrexed; first compound 0.2 µM) | relative viability (Lapatinib + Pemetrexed; first compound 0.6325 µM) | relative viability (Lapatinib + Pemetrexed; first compound 2 µM) |
| --- | --- | --- | --- | --- | --- | --- | --- | --- | --- | --- | --- | --- | --- | --- | --- | --- | --- | --- |
| NCI-H727 | 0.607 | 0.678 | 0.627 | 0.733 | 0.702 | 0.547 | 0.586 | 0.565 | 1.17 | 1.17 | 1.45 | 1.02 |  |  |  |  |  |  |
| NCI-H1666 | 0.658 | 0.654 | 0.616 | 0.647 | 0.649 | 0.674 | 0.566 | 0.576 | 0.951 | 1.05 | 0.961 | 0.789 | 0.978 | 0.858 | 0.789 | 0.851 | 0.841 | 0.67 |
| NCI-H1792 | 0.673 | 0.655 | 0.672 | 0.656 |  |  |  |  |  |  |  |  |  |  |  | 0.936 | 0.75 | 0.656 |
| LCLC-103H | 0.462 | 0.509 | 0.487 | 0.472 | 0.516 | 0.487 | 0.475 | 0.474 | 0.582 | 0.768 | 0.779 | 0.692 | 0.65 | 0.558 | 0.437 | 0.47 | 0.494 | 0.425 |
| BEN | 0.477 | 0.437 | 0.538 | 0.534 | 0.478 | 0.474 | 0.497 | 0.501 | 0.506 | 0.586 | 0.559 | 0.51 | 0.587 | 0.409 | 0.847 | 0.683 | 0.802 | 0.71 |
| COR-L 105 | 0.362 | 0.373 | 0.379 | 0.438 | 0.297 | 0.332 | 0.371 | 0.437 | 0.773 | 0.779 | 0.42 | 0.589 | 0.825 | 1.09 | 1.16 | 0.953 | 0.68 | 0.619 |
| LC-2-ad | 0.484 | 0.509 | 0.536 | 0.505 | 0.403 | 0.45 | 0.478 | 0.434 |  | 0.763 | 0.623 | 0.672 | 0.632 |  | 0.29 | 0.264 | 0.271 | 0.232 |
| NCI-H358 | 0.134 | 0.128 | 0.153 | 0.1 | 0.108 | 0.0976 | 0.108 | 0.0887 | 0.596 | 0.511 | 0.362 | 0.215 | 0.418 | 0.173 | 0.157 | 0.16 | 0.167 | 0.189 |
| HARA | 0.27 | 0.231 | 0.325 | 0.22 | 0.103 | 0.135 | 0.151 | 0.088 |  | 0.443 | 0.467 | 0.427 | 0.452 | 0.222 | 0.225 | 0.274 | 0.277 | 0.224 |
| CAL-12T | 0.483 | 0.375 | 0.556 | 0.394 | 0.47 | 0.335 | 0.349 | 0.263 | 0.655 | 0.755 | 0.71 | 0.424 | 0.624 | 1.16 | 1.31 | 1.37 | 1.04 | 0.744 |
| NCI-H1975 | 0.605 | 0.601 | 0.607 | 0.554 | 0.789 | 0.705 | 0.776 | 0.744 | 0.71 | 0.732 | 0.716 | 0.662 | 0.676 | 0.316 | 0.298 | 0.287 | 0.283 | 0.284 |
| PC-14 | 0.688 | 0.496 | 0.552 | 0.506 | 0.663 | 0.658 | 0.569 | 0.619 | 0.652 | 0.76 | 0.732 | 0.0919 | 0.55 | 0.151 | 0.117 | 0.167 | 0.133 | 0.129 |
| NCI-H1944 | 0.343 | 0.328 | 0.334 | 0.339 | 0.237 | 0.261 | 0.263 | 0.246 | 0.514 | 0.461 | 0.459 | 0.437 | 0.511 | 0.619 | 0.493 | 0.551 | 0.523 | 0.41 |
| A-427 | 0.55 | 0.513 | 0.509 | 0.562 | 0.217 | 0.183 | 0.211 | 0.243 | 0.839 | 0.862 | 0.833 | 0.845 | 0.841 | 0.928 | 0.949 | 0.946 | 1.06 | 0.963 |
| H3255 | 0.354 | 0.331 | 0.302 | 0.311 | 0.715 | 0.616 | 0.626 | 0.63 |  | 0.741 | 0.816 | 0.293 | 0.697 | 0.514 | 0.514 | 0.544 | 0.504 | 0.407 |
| NCI-H23 | 0.51 | 0.508 | 0.521 | 0.474 | 0.377 | 0.33 | 0.446 | 0.333 |  | 0.624 | 0.746 | 0.555 |  |  |  | 0.782 | 0.58 | 0.529 |
| NCI-H2087 | 0.228 | 0.212 | 0.245 | 0.23 | 0.274 | 0.235 | 0.255 | 0.291 | 0.547 | 0.728 | 0.604 | 0.671 | 0.843 | 0.646 | 0.636 | 0.599 | 0.616 | 0.513 |
| NCI-H596 |  |  |  |  | 0.943 | 0.778 | 0.882 | 0.905 |  | 0.606 | 0.711 | 0.537 | 0.538 |  | 0.505 | 0.531 | 0.504 | 0.494 |
| ABC-1 | 0.621 | 0.693 | 1.03 | 0.923 | 0.15 | 0.166 | 0.164 | 0.19 | 0.929 |  | 1 | 1.18 | 1.02 |  |  |  |  |  |
| NCI-H1623 |  |  |  |  | 0.426 | 0.401 | 0.415 | 0.434 |  |  |  |  |  |  |  |  |  |  |
| NCI-H1563 |  |  |  |  |  |  |  |  |  |  |  |  |  | 0.651 | 0.862 | 0.652 | 0.843 | 0.666 |
